One assay deals with rats. The experiment in a line: Forced swimming test (animal model of depression). The class given is in vivo. The method, then:
A typical animal model of depression is the “forced swimming test” (R. D. Porsolt et al., Nature 1977; 266(5604): 730-732), which is carried out with rats. This model is based on the behaviour known as “behavioural despair”, which the animals show in a hopeless situation known to them: If the rats are placed in a water-filled vessel (usually for 15 minutes) from which they cannot escape, they cease their attempts to escape from the situation after a certain time and remain in immobility or make only the most necessary swimming movements. If the rats are subjected to this situation again the next day, they recognise the hopelessness of the situation and remain in immobility for the majority of the time, and the time which the animals spend in immobility (which is regarded as surrogate for depression) during the 5-minute test duration serves as a measure of the depression. Anti-depressants shorten this immobility time. Fluoxetine (5 mg/kg perorally) and 2-BFI (3 and 10 mg/kg perorally) are administered—individually or combined—either in accordance with a repeated acute scheme (fluoxetine 24 h, 5 h and 2 h; 2-BFI 24 h, 5 h and 1 h before commencement of the test) or in accordance with a subchronic scheme (fluoxetine or 2-BFI once daily for 7 days, on the final day fluoxetine 2 h and 2-BFI 1 h before commencement of the test).

Assay [1] has as its system extracellular 5-HT level in the frontal cortex. Description: Microdialysis studies: extracellular 5-HT level in the frontal cortex of rats. It counts as in vivo.
The next assay relates to mice. Description: Marble burying test (animal model of anxiety states). It counts as in vivo. The settings on record: 3 mg/kg subcutaneously each substance, individually or combined at the same dose; 30 minutes test; FIG. 3. The method, then:
A typical animal model of anxiety states is the “marble burying test” (for example Njung'e and Handley, Br J Pharmacol 1991, 104: 105-112), which has, in particular, specificity for obsessive-compulsive disorders and obsessive-compulsive spectrum disorders. The experimental device consists of a cube-shaped box open at the top in which 25 clear glass marbles are arranged at uniform separations on a 5 cm deep layer of sawdust. Mice are placed individually in the test box for 30 minutes. The number of marbles buried in the sawdust during the test duration of 30 minutes serves as a measure of anxiety. Untreated mice bury the most marbles in the sawdust, anxiolytics reduce the number of buried marbles.

For assay [2], the system named is extracellular level of serotonin (5-HT) in the brain. As to conditions: fluoxetine alone, even at a relatively high dose; literature (Artigas et al.); cited from earlier work.

Consider two compounds from patent publication US20080027140A1, “Combinations of Serotonin Reuptake Inhibitors and Imidazoline I 2 Agonists” (MERCK PATENT GMBH, priority 2004, published 2008).

“Also recorded” adds a separate entry of the source.

Take `CNCCC(Oc1ccc(C(F)(F)F)cc1)c1ccccc1` (stereo not drawn) [fluoxetine]: the immobility phase result is recorded as “only a negligible effect” in the assay with rats (repeated acute scheme, fluoxetine alone 5 mg/kg perorally, 24 h, 5 h and 2 h before test, FIG. 4); “Virtually identical effects” in the assay with rats (subchronic scheme, once daily for 7 days, fluoxetine alone 5 mg/kg perorally, FIG. 5). Further, in assay [1] (fluoxetine alone, 10 mg/kg intraperitoneally, FIG. 2, 10 mg/kg), the “effect on the extracellular 5-HT level” value is “slightly raises; also recorded: only a slight increase”. Moreover, the “number of buried marbles compared with vehicle-treated mice” value with mice was “reduced the number of buried marbles only slightly”. In addition, the “approximately three-fold increase of the extracellular 5-HT level” value in assay [2] is recorded as “cannot be achieved”.
With `c1ccc2oc(C3=NCCN3)cc2c1` [2-BFI, 2-(2-benzofuranyl)-2-imidazoline], the immobility phase result is “does not reduce the immobility phase” in the assay with rats (repeated acute scheme, 2-BFI alone 3 and 10 mg/kg perorally, 24 h, 5 h and 1 h before test, FIG. 4); “Virtually identical effects” in the assay on rats (subchronic scheme, once daily for 7 days, 2-BFI alone 3 and 10 mg/kg perorally, FIG. 5). Besides, the “effect on the extracellular 5-HT level in the frontal cortex” value in assay [1] (2-BFI alone, 20 mg/kg subcutaneously, FIG. 1) is on record as “no effect”. Moreover, the “number of buried marbles compared with vehicle-treated mice” value in the assay with mice is on record as “reduced the number of buried marbles only slightly”.
